Source: patent US20140336193A1, “POTENT NON-UREA INHIBITORS OF SOLUBLE EPOXIDE HYDROLASE” (priority 2012, published 2014)

Key:
[1] = molecular target: T1, Human sEH (Homo sapiens, UniProt P34913); assay: Fluorescent assay with CMNPC substrate (Example 2); format: biochemical
T1 sequence (P34913 1-555): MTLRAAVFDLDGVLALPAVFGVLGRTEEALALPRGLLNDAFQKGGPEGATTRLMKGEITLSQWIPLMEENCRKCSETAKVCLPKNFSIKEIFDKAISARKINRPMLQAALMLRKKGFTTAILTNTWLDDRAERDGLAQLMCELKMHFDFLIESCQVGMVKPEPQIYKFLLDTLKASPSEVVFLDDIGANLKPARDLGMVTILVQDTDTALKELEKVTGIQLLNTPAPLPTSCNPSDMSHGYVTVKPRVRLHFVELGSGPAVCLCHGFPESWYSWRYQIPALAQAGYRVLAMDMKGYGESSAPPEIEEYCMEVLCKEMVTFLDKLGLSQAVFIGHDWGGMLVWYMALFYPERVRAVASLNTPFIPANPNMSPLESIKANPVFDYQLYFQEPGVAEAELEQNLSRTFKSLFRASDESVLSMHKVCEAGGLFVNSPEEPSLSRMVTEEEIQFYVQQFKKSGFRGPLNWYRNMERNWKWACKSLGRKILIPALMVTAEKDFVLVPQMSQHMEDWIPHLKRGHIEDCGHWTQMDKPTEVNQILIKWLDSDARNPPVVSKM
Procedure: A fluorescent assay was employed for high throughput screening (HTS) of inhibitors of sEH. Cyano(2-methoxynaphthalen-6-yl)methyl trans-(3-phenyloxyran-2-yl)methyl carbonate (CMNPC) was used as the fluorescent substrate. Human sEH (1 nM) was incubated with a compound of Formula I for 5 min in pH 7.0 Bis-Tris/HCl buffer (25 mM) containing 0.1 mg/mL of BSA at 30° C. prior to substrate introduction ([S]=5 μM). […] IC50 values are the average of the three replicates with at least two datum points above and at least two below the IC50.

[2] = In vitro human liver microsomal metabolic stability (Example 4); format: in vitro ADME; settings: for CLint scaled / half-life: pooled human liver microsomes; for CLint scaled: apparent intrinsic clearance, human liver microsomes; for half-life: half life in human liver microsomes, averages of duplicate determination, read-out: hLM t1/2
Procedure: The stability of sEH inhibitors in a human liver microsomal assay was determined as a predictor of in vivo oxidative metabolism. Microsomal stability was assessed in pooled human liver microsomes (Celsis, Edison, N.J.). All reactions were carried out for 90 min at 37° C. in an NADPH-generating system consisting of glucose 6-phosphate, glucose 6-phosphate dehydrogenase, and NADP^+ (Sigma, St. Louis, Mo.). Positive control incubations proceeded with 7-ethoxycoumarin as the substrate. Reactions were terminated by adding methanol. The mixtures were centrifuged and the supernatants were evaporated. The residues were reconstituted in mobile phase (85% ACN; 15% H2O) and subjected to LC/MS analysis.

[3] = molecular target: T1, Human sEH; assay: biochemical; settings: Table 1

| SMILES | IC50 [1] | also measured |
| --- | --- | --- |
| Cc1ccc(S(=O)(=O)N2CCC(C(=O)NC3CCCCC3)CC2)c(C)c1 [Compound 7-6] | – | CLint scaled [2]: 90 mL/min/kg; half-life [2]: 14 min |
| Cc1ccc(S(=O)(=O)N2CCC(C(=O)NCC3CCCCC3)CC2)c(C)c1 [Compound 7-9] | – | CLint scaled [2]: 520 mL/min/kg; half-life [2]: 2.4 min |
| Cc1ccc(S(=O)(=O)N2CCC(C(=O)NC34CC5CC(CC(C5)C3)C4)CC2)c(C)c1 [Compound 7-11] | 8.5 nM | CLint scaled [2]: 340 mL/min/kg; half-life [2]: 3.7 min |
| Cc1ccc(S(=O)(=O)N2CCC(C(=O)Nc3ccccc3C)CC2)c(C)c1 [Compound 7-16] | 640 nM | – |
| Cc1ccc(S(=O)(=O)N2CCC(C(=O)Nc3ccc(Oc4ccccc4)cc3)CC2)c(C)c1 [Compound 7-20] | 6 nM | CLint scaled [2]: 120 mL/min/kg; half-life [2]: 11 min |
| Cc1ccc(S(=O)(=O)N2CCC(C(=O)Nc3ccc(OC(F)(F)F)cc3)CC2)c(C)c1 [Compound 7-23] | 5.2 nM | CLint scaled [2]: 28 mL/min/kg; half-life [2]: 46 min |
| Cc1ccc(S(=O)(=O)N2CCC(C(=O)Nc3ccc(N4CCCCC4)cc3)CC2)c(C)c1 [Compound 7-25] | 29 nM | in vitro metabolic stability in human liver microsomes, in words [2]: intermediate metabolic profiles |
| Cc1ccc(S(=O)(=O)N2CCC(C(=O)Nc3ccc(N4CCCCC4)c(C(N)=O)c3)CC2)c(C)c1 [Compound 7-26] | 102 nM | in vitro metabolic stability in human liver microsomes, in words [2]: intermediate metabolic profiles |
| Cc1ccc(S(=O)(=O)N2CCC(C(=O)Nc3ccc(N4CCOCC4)cc3)CC2)c(C)c1 [Compound 7-27] | 41 nM | – |
| Cc1ccc(S(=O)(=O)N2CCC(C(=O)Nc3ccc(S(=O)(=O)C(F)(F)F)cc3)CC2)c(C)c1 [Compound 7-30] | 8.7 nM | – |
| Cc1ccc(S(=O)(=O)N2CCC(C(=O)Nc3cc(Cl)cc(Cl)c3)CC2)c(C)c1 [Compound 7-35] | 12 nM | – |
| Cc1ccc(S(=O)(=O)N2CCC(C(=O)Nc3ccc(Cl)c(C(F)(F)F)c3)CC2)c(C)c1 [Compound 7-36] | 43 nM | – |
| COC(=O)c1ccc2cc(NC(=O)C3CCN(S(=O)(=O)c4ccc(C)cc4C)CC3)ccc2c1 [Compound 7-43] | 2.3 nM | – |
| Cc1ccc(S(=O)(=O)N2CCC(C(=O)Nc3ccc4cc(C(=O)O)ccc4c3)CC2)c(C)c1 [Compound 7-44] | 23 nM | in vitro metabolic stability in human liver microsomes, in words [2]: excellent in vitro metabolic stability; CLint scaled [2]: 5.6 mL/min/kg; half-life [2]: 220 min |
| Cc1ccc(S(=O)(=O)N2CCC(C(=O)Nc3ccc4c(c3)OCO4)CC2)c(C)c1 [Compound 7-45] | 0.6 nM | CLint scaled [2]: 35 mL/min/kg; half-life [2]: 36 min |
| Cc1ccc(S(=O)(=O)N2CCC(C(=O)NC34CC5CC(CC(C5)C3)C4)CC2)c(C)c1 [Compound 2535] | – | IC50 [3]: 8.5 nM |
| Cc1ccc(S(=O)(=O)N2CCC(C(=O)NC3C[C@@H]3c3ccccc3)CC2)c(C)c1 (some centres unmarked) [Compound 2536] | – | IC50 [3]: 5.2 nM |
| Cc1ccc(S(=O)(=O)N2CCC(C(=O)Nc3ccc4cc(C(=O)O)ccc4c3)CC2)c(C)c1 [Compound 2590] | – | IC50 [3]: 23.2 nM |

Second part, led by results:

| IC50 [1] | SMILES | also measured |
| --- | --- | --- |
| 5.2 nM | Cc1ccc(S(=O)(=O)N2CCC(C(=O)N[C@@H]3C[C@H]3c3ccccc3)CC2)c(C)c1 [Compound 7-3] | CLint scaled [2]: 90 mL/min/kg; half-life [2]: 14 min |
| 0.6 nM | Cc1ccc(S(=O)(=O)N2CCC(C(=O)NC3CCCc4ccccc43)CC2)c(C)c1 (centres unmarked) [Compound 7-8] | – |
| 23 nM | Cc1ccc(S(=O)(=O)N2CCC(C(=O)Nc3ccccc3)CC2)c(C)c1 [Compound 7-12] | – |
| 20 nM | Cc1ccc(S(=O)(=O)N2CCC(C(=O)Nc3ccccc3F)CC2)c(C)c1 [Compound 7-13] | – |
| 250 nM | Cc1ccc(S(=O)(=O)N2CCC(C(=O)Nc3ccccc3Cl)CC2)c(C)c1 [Compound 7-14] | – |
| 30 nM | Cc1ccc(S(=O)(=O)N2CCC(C(=O)Nc3ccccc3Br)CC2)c(C)c1 [Compound 7-15] | – |
| 2200 nM | Cc1ccc(S(=O)(=O)N2CCC(C(=O)Nc3ccccc3O)CC2)c(C)c1 [Compound 7-17] | – |
| 55 nM | Cc1ccc(S(=O)(=O)N2CCC(C(=O)Nc3ccc(O)cc3)CC2)c(C)c1 [Compound 7-19] | – |
| 13 nM | COC(=O)c1ccc(NC(=O)C2CCN(S(=O)(=O)c3ccc(C)cc3C)CC2)cc1 [Compound 7-21] | – |
| 110 nM | Cc1ccc(S(=O)(=O)N2CCC(C(=O)Nc3ccc(C(=O)O)cc3)CC2)c(C)c1 [Compound 7-22] | – |
| 4.6 nM | Cc1ccc(S(=O)(=O)N2CCC(C(=O)Nc3ccc([N+](=O)[O-])cc3)CC2)c(C)c1 [Compound 7-24] | CLint scaled [2]: 7 mL/min/kg; half-life [2]: 180 min |
| 2.8 nM | Cc1ccc(S(=O)(=O)N2CCC(C(=O)Nc3ccc(C(C)C)cc3)CC2)c(C)c1 [Compound 7-28] | – |
| 6.9 nM | Cc1ccc(S(=O)(=O)N2CCC(C(=O)Nc3ccc(C(F)(F)F)cc3)CC2)c(C)c1 [Compound 7-29] | – |
| 20 nM | Cc1ccc(S(=O)(=O)N2CCC(C(=O)Nc3cccc(C(F)(F)F)c3)CC2)c(C)c1 [Compound 7-31] | – |
| 25 nM | Cc1ccc(S(=O)(=O)N2CCC(C(=O)Nc3ccc(F)cc3)CC2)c(C)c1 [Compound 7-32] | – |
| 20 nM | Cc1ccc(S(=O)(=O)N2CCC(C(=O)Nc3ccc(Cl)cc3)CC2)c(C)c1 [Compound 7-33] | – |
| 17 nM | Cc1ccc(S(=O)(=O)N2CCC(C(=O)Nc3ccc(Br)cc3)CC2)c(C)c1 [Compound 7-34] | – |
| 6.7 nM | Cc1ccc(S(=O)(=O)N2CCC(C(=O)Nc3ccc(Cl)c(Cl)c3)CC2)c(C)c1 [Compound 7-37] | CLint scaled [2]: 50 mL/min/kg; half-life [2]: 25 min |
| 1.6 nM | Cc1ccc(S(=O)(=O)N2CCC(C(=O)Nc3ccc4ccccc4c3)CC2)c(C)c1 [Compound 7-38] | CLint scaled [2]: 35 mL/min/kg; half-life [2]: 36 min |
| 45 nM | Cc1ccc(S(=O)(=O)N2CCC(C(=O)Nc3cnc4ccccc4c3)CC2)c(C)c1 [Compound 7-40] | – |
| 78 nM | Cc1ccc(S(=O)(=O)N2CCC(C(=O)Nc3ccc4ncccc4c3)CC2)c(C)c1 [Compound 7-41] | – |
